Source: patent publication US9090599B2, “Heteroarylmethyl amides” (Hoffman-La Roche Inc., priority 2010, dated 2015)
Where two headings read alike, the source gives them in different places.

Key:
human CB1 receptor = target: T1, human CB1 receptor (Homo sapiens, UniProt P21554); test: CB1 receptor affinity, [3H]-CP-55,940 displacement, HEK cell membranes; assay type: binding; conditions: read-out: CB1 receptor affinity [% inhibition @ 10 μM]
T1 construct: expressed in transfected cells; host or cells: human embryonic kidney (HEK) cells, Semliki Forest Virus system, membrane preparations
T1 sequence (P21554 whole entry): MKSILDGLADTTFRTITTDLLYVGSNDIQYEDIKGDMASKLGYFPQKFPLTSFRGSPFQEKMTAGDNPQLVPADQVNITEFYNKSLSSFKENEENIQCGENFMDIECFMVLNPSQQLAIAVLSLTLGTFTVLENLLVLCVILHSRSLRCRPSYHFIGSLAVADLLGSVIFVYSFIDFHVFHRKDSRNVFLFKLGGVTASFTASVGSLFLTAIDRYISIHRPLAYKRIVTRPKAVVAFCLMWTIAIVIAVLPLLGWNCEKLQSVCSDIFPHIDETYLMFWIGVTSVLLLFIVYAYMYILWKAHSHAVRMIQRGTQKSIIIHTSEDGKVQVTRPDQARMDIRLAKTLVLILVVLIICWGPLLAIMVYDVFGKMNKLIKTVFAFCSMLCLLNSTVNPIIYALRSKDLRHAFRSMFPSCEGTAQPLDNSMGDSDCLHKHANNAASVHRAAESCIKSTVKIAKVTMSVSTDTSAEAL
Protocol: (§1) The affinity of the compounds of the invention for cannabinoid receptors was determined using membrane preparations of human embryonic kidney (HEK) cells in which the human CB1 receptor is transiently transfected using a Semliki Forest Virus system in conjunction with [3H]-CP-55,940 as radioligand. After incubation of freshly prepared cell membrane preparation with the [^3H]-ligand, with or without addition of compounds of the invention, separation of bound and free ligand was performed by filtration over glass fiber filters. Radioactivity on the filter was measured by scintillation counting.
(§2) The ability of the compounds to displace the radioligand [^3H]-CP-55,940 was measured at a concentration of 10 μM and values provided as [% inhibition @ 10 μM] both for the CB 1 and CB2 receptor assay, The lower % inhibition is, the lower the likelihood of side effects based on CB1 or CB2 receptor inhibition is.

human CB2 receptor = target: T2, human CB2 receptor (Homo sapiens, UniProt P34972); test: CB2 receptor affinity, [3H]-CP-55,940 displacement, HEK cell membranes; assay type: binding; conditions: 10 μM compound, radioligand [3H]-CP-55,940
T2 construct: expressed in transfected cells; host or cells: human embryonic kidney (HEK) cells, Semliki Forest Virus system, membrane preparations
T2 sequence (P34972 whole entry): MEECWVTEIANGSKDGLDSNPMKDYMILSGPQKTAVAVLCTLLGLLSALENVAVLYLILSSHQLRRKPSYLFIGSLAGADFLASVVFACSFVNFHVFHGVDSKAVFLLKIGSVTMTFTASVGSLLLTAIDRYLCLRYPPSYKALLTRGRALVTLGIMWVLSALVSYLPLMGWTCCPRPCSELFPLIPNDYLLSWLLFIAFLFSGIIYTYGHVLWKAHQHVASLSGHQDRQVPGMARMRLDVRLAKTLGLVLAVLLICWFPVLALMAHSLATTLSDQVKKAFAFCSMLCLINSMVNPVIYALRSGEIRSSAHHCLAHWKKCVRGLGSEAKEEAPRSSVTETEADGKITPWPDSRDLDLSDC
Protocol: as §1, with “cannabinoid CB2” for “cannabinoid”, “CB2” for “CB1”, “[^3H]-CP-55,940” for “[3H]-CP-55,940”
as §2

[1] = 10 μM compound, radioligand [3H]-CP-55,940

Structure (SMILES)	inhibition at 10 µM (human CB2 receptor) [%]	inhibition at 10 µM (human CB1 receptor; [1]) [%]	inhibition at 10 µM (human CB1 receptor) [%]
COc1cc(CNC(=O)c2cc(-c3ccc(C)c(Cl)c3)c(OCC(F)(F)F)cn2)on1 [Example 73, 4-(3-chloro-4-methylphenyl)-N-((3-methoxyisoxazol-5-yl)methyl)-5-(2,2,2-trifluoroethoxy)picolinamide]	45		22
O=C(NCc1nc(C(F)(F)F)no1)c1cnc(OC2CCC2)c(-c2ccc(Cl)c(F)c2)c1 [Example 93, 5-(4-chloro-3-fluorophenyl)-6-cyclobutoxy-N-((3-(trifluoromethyl)-1,2,4-oxadiazol-5-yl)methyl)nicotinamide]	7	18	
O=C(NCc1nc(C(F)(F)F)no1)c1cnc(OCC(F)(F)F)c(-c2ccc(Cl)c(F)c2)c1 [Example 82, 5-(4-chloro-3-fluorophenyl)-6-(2,2,2-trifluoroethoxy)-N-((3-(trifluoromethyl)-1,2,4-oxadiazol-5-yl)methyl)nicotinamide]	27	30	
O=C(NCc1coc(C2CC2)n1)c1ccc(OCC2CC2)c(-c2ccc(Cl)cc2)n1 [Example 56, 6-(4-chloro-phenyl)-5-cyclopropylmethoxy-pyridine-2-carboxylic acid (2-cyclopropyl-oxazol-4-ylmethyl)-amide]	32	38	
O=C(NCc1ccccn1)c1cnc(OC2CCC2)c(-c2ccc(Cl)cc2)c1 [Example 101, 5-(4-chlorophenyl)-6-cyclobutoxy-N-(pyridin-2-ylmethyl)nicotinamide]	37	45	
CC(C)c1cc(CNC(=O)c2ccc(OCC3CC3)c(-c3ccc(Cl)cc3)n2)no1 [Example 55, 6-(4-chloro-phenyl)-5-cyclopropylmethoxy-pyridine-2-carboxylic acid (5-isopropyl-isoxazol-3-ylmethyl)-amide]	33	44	
O=C(NCc1csc(C2CC2)n1)c1ccc(OCC2CC2)c(-c2ccc(Cl)cc2)n1 [Example 57, 6-(4-chloro-phenyl)-5-cyclopropylmethoxy-pyridine-2-carboxylic acid (2-cyclopropyl-thiazol-4-ylmethyl)-amide]	36		31
O=C(NCc1nc(C(F)(F)F)no1)c1cnc(OCC(F)(F)F)c(-c2ccc3c(c2)CCC3)c1 [Example 85, 5-(2,3-dihydro-1H-inden-5-yl)-6-(2,2,2-trifluoroethoxy)-N-((3-(trifluoromethyl)-1,2,4-oxadiazol-5-yl)methyl)nicotinamide]	8	7	
COCCOc1ncc(C(=O)NCc2nc(C(F)(F)F)no2)cc1-c1ccc(Cl)c(C)c1 [Example 98, 5-(4-chloro-3-methylphenyl)-6-(2-methoxyethoxy)-N-((3-(trifluoromethyl)-1,2,4-oxadiazol-5-yl)methyl)nicotinamide]	16	41	
COc1cc(CNC(=O)c2cc(-c3ccc(C)c(C)c3)c(OCC(F)(F)F)cn2)on1 [Example 75, 4-(3,4-dimethylphenyl)-N-((3-methoxyisoxazol-5-yl)methyl)-5-(2,2,2-trifluoroethoxy)picolinamide]	34	19	

More lines, main results first:

inhibition at 10 µM (human CB2 receptor) [%]	inhibition at 10 µM (human CB1 receptor; [1]) [%]	Structure (SMILES)	inhibition at 10 µM (human CB1 receptor) [%]
46	35	O=C(NCc1noc(C2CC2)n1)c1ncc(OCC2CC2)c(-c2ccc(Cl)cc2)n1 [Example 13, 4-(4-chloro-phenyl)-5-cyclopropylmethoxy-pyrimidine-2-carboxylic acid (5-cyclopropyl-[1,2,4]oxadiazol-3-ylmethyl)-amide]	
24	44	O=C(NCc1cc(C(F)(F)F)no1)c1ncc(OCC2CC2)c(-c2ccc(Cl)cc2)n1 [Example 62, 4-(4-chloro-phenyl)-5-cyclopropylmethoxy-pyrimidine-2-carboxylic acid (3-trifluoromethyl-isoxazol-5-ylmethyl)-amide]	
8	45	COCCOc1ncc(C(=O)NCc2nc(C(F)(F)F)no2)cc1-c1ccc(F)c(F)c1 [Example 96, 5-(3,4-difluorophenyl)-6-(2-methoxyethoxy)-N-((3-(trifluoromethyl)-1,2,4-oxadiazol-5-yl)methyl)nicotinamide]	
12	20	CC(C)(C)c1nc(CNC(=O)c2cc(-c3ccc(Cl)cc3)c(OCC3CC3)cn2)cs1 [Example 54, N-((2-tert-butylthiazol-4-yl)methyl)-4-(4-chlorophenyl)-5-(cyclopropylmethoxy)picolinamide]	
-5	38	O=C(NCc1cc(C(F)(F)F)on1)c1cnc(OCC(F)(F)F)c(-c2ccc(Cl)cc2)c1 [Example 50, 5-(4-chloro-phenyl)-6-(2,2,2-trifluoro-ethoxy)-N-(5-trifluoromethyl-isoxazol-3-ylmethyl)-nicotinamide]	
	18	CC(C)(C)c1nc(CNC(=O)c2cc(-c3ccc(Cl)cc3)c(OCC(F)(F)F)nn2)cs1 [Example 65, 5-(4-chloro-phenyl)-6-(2,2,2-trifluoro-ethoxy)-pyridazine-3-carboxylic acid (2-tert-butyl-thiazol-4-ylmethyl)-amide]	
43	30	Cc1cc(CNC(=O)c2cc(-c3ccc(Cl)cc3)c(OCC(F)(F)F)cn2)no1 [Example 19, 4-(4-chlorophenyl)-N-((5-methylisoxazol-3-yl)methyl)-5-(2,2,2-trifluoro-ethoxy)picolinamide]	
19	29	CC(C)c1noc(CNC(=O)c2cc(-c3ccc(Cl)cc3)c(OCC(F)(F)F)cn2)n1 [Example 40, 4-(4-chlorophenyl)-N-((3-isopropyl-1,2,4-oxadiazol-5-yl)methyl)-5-(2,2,2-trifluoroethoxy)picolinamide]	
-4	26	O=C(NCc1nc(C(F)(F)F)no1)c1cnc(OCCO)c(-c2ccc(Cl)cc2)c1 [Example 102, 5-(4-chlorophenyl)-6-(2-hydroxyethoxy)-N-((3-(trifluoromethyl)-1,2,4-oxadiazol-5-yl)methyl)nicotinamide]	
24	47	O=C(NCc1nc(C(F)(F)F)no1)c1cnc(O[C@@H]2CCOC2)c(-c2ccc(Cl)cc2)c1 [Example 103, (R)-5-(4-chlorophenyl)-6-(tetrahydrofuran-3-yloxy)-N-((3-(trifluoromethyl)-1,2,4-oxadiazol-5-yl)methyl)nicotinamide]	
11	48	O=C(NCc1ccn(CC2CC2)n1)c1cnc(OCC(F)(F)F)c(-c2ccc(Cl)cc2)c1 [Example 88, 5-(4-chlorophenyl)-N-((1-(cyclopropylmethyl)-1H-pyrazol-3-yl)methyl)-6-(2,2,2-trifluoroethoxy)nicotinamide]	
17	47	O=C(NCc1nc(C(F)(F)F)no1)c1cnc(OC[C@@H]2CCOC2)c(-c2ccc(Cl)cc2)c1 (stereo in doubt) [Example 105, 5-(4-Chloro-phenyl)-6-[(RS)-1-(tetrahydro-furan-3-yl)methoxy]-N-(3-trifluoromethyl-[1,2,4]oxadiazol-5-ylmethyl)-nicotinamide]	
